Measurements reported in patent US10092517B2, “Gelated microparticle suitable for oral delivery of therapeutic peptides to the lower intestine” (Insucaps Limited, priority 2015, dated 2018).

Test system: isolated rat colonic mucosae
Assay: TEER and Papp of [14C]-mannitol in isolated rat colonic mucosae mounted in Ussing chambers
Assay type: in vitro ADME
Description: Ussing Chambers allow the measurement of transport molecules from the apical side of a section of intestinal tissue (rodent) to the basolateral, thereby simulating passage across the gut wall in vivo. […] Their ability to improve intestinal permeability was testing in isolated rat colonic mucosae by measurement of transepithelial electrical resistance (TEER) and permeability of [14C]-mannitol. The permeability of the marker molecule, radioactively labelled sugar ([C14]-Mannitol) was calculated by scintillation counting.
The transepithelial potential difference (PD, mV) is measured in the open circuit configuration after which the tissue is voltage clamped to zero PD by insertion of the required short circuit current (Isc, μA cm^−2) by means of an automatic voltage clamp (EVC-4000 amplifier, WPI, UK).
Isc and PD are alternatively monitored by switching to open circuit conditions for 3 s every 30 s using a timer (Pro-4, WPI, UK). Analogue data was digitised with a Powerlab® data acquisition unit and analyzed with Chart® software package (AD instruments, UK).
Following an equilibration period of 45 min, baseline PD and Isc are measured and TEER (Ω cm^2) is calculated according to Ohm's law.
Transport of radiolabelled mannitol from the apical chamber to the basolateral chamber was used to measure intestinal permeability.
Following addition of [^14C]-mannitol (0.2 μCi) to the apical chamber flux is monitored periodically over two hours by sampling the serosal chamber (100 μL) every 20 minutes for two hours, and apically (100 μL) at time zero, replenishing with fresh KH buffer at each sampling point.
Samples containing [^14C]-mannitol were mixed with scintillation fluid and read in a scintillation analyzer (Packard Tricarb 2900 TR).
The apparent permeability coefficient (Papp) for mannitol and FD4 is calculated according to the equation; Papp (cm/s)=(dQ/dt) (1/AC0), where dQ/dt is the transport rate (mol/s); A is the surface area of the monolayer (cm^2), and C0 is the initial concentration in the donor compartment (mol/mL).

| enhancement of mannitol flux (25 mg Vitamin B12 in encapsulation systems) [fold] | Molecule | TEER (10, 25 and 50 mg of TCA added to the encapsulation system) | TEER (Vitamin B12 in encapsulation systems, over 2 hours) |
| --- | --- | --- | --- |
| – | C[C@H](CCC(=O)NCCS(=O)(=O)O)[C@H]1CC[C@H]2[C@@H]3[C@H](O)C[C@@H]4C[C@H](O)CC[C@]4(C)[C@H]3C[C@H](O)[C@]12C [TCA, taurocholic acid] | reduced TEER | – |
| 11.5 | cyanocobalamin [Vitamin B12] | – | significantly reduced TEER |
